Results taken from PMC11022681 (Journal of the American Chemical Society, 2023).

Assay: Kinetic inertness: transmetalation with excess Zn2+
Assay type: physicochemical
Details: 25 equivalents of Zn2+, 37 °C, pH 6.0 MES buffer

Substance: Mn-PyC3A
- pseudo-first-order rate constant of transmetalation: 5.5 ± 0.4 ×10^−4 s^−1
